US20260250318A1, “COMPOSITIONS AND METHODS FOR CROSSING THE BLOOD BRAIN BARRIER” (VOYAGER THERAPEUTICS, INC., priority 2022, published 2026)

What was measured:
brain = test: Matured TTM-001 and TTM-002 variants, NGS enrichment in mouse brain; type: in vivo, mice; conditions: relative to AAV9 control
[1] = tested on: brains, heart, liver, muscle, and DRG of the NHPs; test: Maturation of TTM-001 and TTM-002 capsids, NGS enrichment in NHP tissues; type: in vivo; conditions: relative to AAV9 control
Method in brief: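 Variants carry mutations within and flanking the loop IV peptide insert: positions 450–466 were triplet-randomized, while positions 449–466 received low-frequency point mutations. The combined pool went into two NHPs, and each peptide was scored by NGS enrichment ratio against AAV9.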

[2] = NGS fold-enrichment, brain of mice
[3] = NGS fold-enrichment, DRG of NHPs
[4] = NGS fold-enrichment, RNA, brain of NHPs
[5] = NGS fold-enrichment, heart of NHPs
[6] = NGS fold-enrichment, liver DNA of NHPs
[7] = NGS fold-enrichment, liver RNA of NHPs
[8] = NGS fold-enrichment, muscle of NHPs
[9] = NGS fold-enrichment, mouse brain
[10] = NGS fold-enrichment of RNA, NHP brain
[11] = NGS fold-enrichment, NHP liver DNA
[12] = NGS fold-enrichment, NHP liver RNA
[13] = NGS fold-enrichment, NHP muscle
[14] = NGS fold-enrichment of matured AAV capsid variants, NHP brain, RNA

Sequence | Fold Enrichment relative to AAV9, Brain (Mouse) (brain; [2]) | Fold Enrichment relative to AAV9, DRG (NHP) [1, 3] | Fold Enrichment relative to AAV9, Brain (NHP) [1, 4] | Fold Enrichment relative to AAV9, Heart (NHP) [1, 5] | Fold Enrichment relative to AAV9, Liver DNA (NHP) [1, 6] | Fold Enrichment relative to AAV9, Liver RNA (NHP) [1, 7] | Fold Enrichment relative to AAV9, Muscle (NHP) [1, 8] | Fold Enrichment relative to AAV9, Brain (Mouse) (brain; [9]) | Fold Enrichment relative to AAV9, Brain (NHP) [1, 10] | Fold Enrichment relative to AAV9, DRG (NHP) ([1]; NGS fold-enrichment, NHP DRG) | Fold Enrichment relative to AAV9, Heart (NHP) ([1]; NGS fold-enrichment, NHP heart) | Fold Enrichment relative to AAV9, Liver DNA (NHP) [1, 11] | Fold Enrichment relative to AAV9, Liver RNA (NHP) [1, 12] | Fold Enrichment relative to AAV9, Muscle (NHP) [1, 13] | also measured
KTVNGSGSPHSKAQNLQA | 50.934 fold | 0.000 fold | 66.379 fold | 0.000 fold | 0.132 fold | 0.000 fold | 0.000 fold |  |  |  |  |  |  |  | 
KTVNGSGSPHSKAQNQLI | 71.156 fold | 0.000 fold | 80.509 fold | 0.000 fold | 0.166 fold | 0.000 fold | 0.000 fold | 71.156 fold | 80.509 fold | 0.000 fold | 0.000 fold | 0.166 fold | 0.000 fold | 0.000 fold | 
KTVNGSGSPHSKAQNQWT |  |  |  |  |  |  |  |  |  |  |  |  |  |  | Fold Enrichment relative to AAV9, Brain (Mouse) (brain; mouse brain): 69.906 fold; Fold Enrichment relative to AAV9, Brain (NHP) [1, 14]: 56.823 fold; Fold Enrichment relative to AAV9, DRG (NHP) ([1]; NHP DRG): 0.000 fold; Fold Enrichment relative to AAV9, Heart (NHP) ([1]; NHP heart): 0.000 fold; Fold Enrichment relative to AAV9, Liver DNA (NHP) ([1]; NHP liver, DNA): 0.219 fold; Fold Enrichment relative to AAV9, Liver RNA (NHP) ([1]; NHP liver, RNA): 0.000 fold; Fold Enrichment relative to AAV9, Muscle (NHP) ([1]; NHP muscle): 0.299 fold
KTVNGSGSPHSKAQSLQT |  |  |  |  |  |  |  |  |  |  |  |  |  |  | Fold Enrichment relative to AAV9, Brain (Mouse) (brain; mouse brain): 69.033 fold; Fold Enrichment relative to AAV9, Brain (NHP) [1, 14]: 55.497 fold; Fold Enrichment relative to AAV9, DRG (NHP) ([1]; NHP DRG): 0.000 fold; Fold Enrichment relative to AAV9, Heart (NHP) ([1]; NHP heart): 0.060 fold; Fold Enrichment relative to AAV9, Liver DNA (NHP) ([1]; NHP liver, DNA): 0.143 fold; Fold Enrichment relative to AAV9, Liver RNA (NHP) ([1]; NHP liver, RNA): 0.000 fold; Fold Enrichment relative to AAV9, Muscle (NHP) ([1]; NHP muscle): 0.000 fold
KTVNGSGSPHSKAQYQHT | 54.158 fold | 0.000 fold | 72.847 fold | 0.000 fold | 0.130 fold | 0.000 fold | 0.000 fold |  |  |  |  |  |  |  | 
KTVNGSGSPHSKARDQQT | 132.137 fold | 0.123 fold | 124.789 fold | 0.039 fold | 0.454 fold | 0.569 fold | 0.312 fold | 132.137 fold | 124.789 fold | 0.123 fold | 0.039 fold | 0.454 fold | 0.569 fold | 0.312 fold | 
KTVNGSGSPHSKSQNQLT | 80.716 fold | 0.000 fold | 101.327 fold | 0.035 fold | 0.025 fold | 0.000 fold | 0.000 fold | 80.716 fold | 101.327 fold | 0.000 fold | 0.035 fold | 0.025 fold | 0.000 fold | 0.000 fold | 
KTVNGSGSPHSKSQNQQT |  |  |  |  |  |  |  |  |  |  |  |  |  |  | Fold Enrichment relative to AAV9, Brain (Mouse) (brain; mouse brain): 58.000 fold; Fold Enrichment relative to AAV9, Brain (NHP) [1, 14]: 52.395 fold; Fold Enrichment relative to AAV9, DRG (NHP) ([1]; NHP DRG): 0.033 fold; Fold Enrichment relative to AAV9, Heart (NHP) ([1]; NHP heart): 0.077 fold; Fold Enrichment relative to AAV9, Liver DNA (NHP) ([1]; NHP liver, DNA): 0.175 fold; Fold Enrichment relative to AAV9, Liver RNA (NHP) ([1]; NHP liver, RNA): 0.105 fold; Fold Enrichment relative to AAV9, Muscle (NHP) ([1]; NHP muscle): 0.013 fold
KTVNGSGSPHSKTQSQQT | 63.248 fold | 0.000 fold | 115.086 fold | 0.726 fold | 0.340 fold | 0.000 fold | 0.000 fold | 63.248 fold | 115.086 fold | 0.000 fold | 0.726 fold | 0.340 fold | 0.000 fold | 0.000 fold | 
KTVNRNGSPHSKAQNQQT | 85.361 fold | 0.000 fold | 133.016 fold | 0.416 fold | 0.000 fold | 0.000 fold | 0.000 fold | 85.361 fold | 133.016 fold | 0.000 fold | 0.416 fold | 0.000 fold | 0.000 fold | 0.000 fold | 
KTVPNSGSPHSKAQNQQT | 93.793 fold | 0.000 fold | 62.540 fold | 0.000 fold | 0.161 fold | 0.202 fold | 0.011 fold |  |  |  |  |  |  |  | 
KTVPTSGSPHSKAQNQQT |  |  |  |  |  |  |  |  |  |  |  |  |  |  | Fold Enrichment relative to AAV9, Brain (Mouse) (brain; mouse brain): 102.651 fold; Fold Enrichment relative to AAV9, Brain (NHP) [1, 14]: 51.348 fold; Fold Enrichment relative to AAV9, DRG (NHP) ([1]; NHP DRG): 0.013 fold; Fold Enrichment relative to AAV9, Heart (NHP) ([1]; NHP heart): 0.000 fold; Fold Enrichment relative to AAV9, Liver DNA (NHP) ([1]; NHP liver, DNA): 0.338 fold; Fold Enrichment relative to AAV9, Liver RNA (NHP) ([1]; NHP liver, RNA): 1.017 fold; Fold Enrichment relative to AAV9, Muscle (NHP) ([1]; NHP muscle): 0.000 fold
KTVRDSGSPHSKAQNQQT | 142.600 fold | 0.000 fold | 66.056 fold | 0.025 fold | 0.461 fold | 0.129 fold | 0.000 fold |  |  |  |  |  |  |  | 
KTWQNSGSPHSKAQNQQT |  |  |  |  |  |  |  |  |  |  |  |  |  |  | Fold Enrichment relative to AAV9, Brain (Mouse) (brain; mouse brain): 114.258 fold; Fold Enrichment relative to AAV9, Brain (NHP) [1, 14]: 55.245 fold; Fold Enrichment relative to AAV9, DRG (NHP) ([1]; NHP DRG): 0.000 fold; Fold Enrichment relative to AAV9, Heart (NHP) ([1]; NHP heart): 0.000 fold; Fold Enrichment relative to AAV9, Liver DNA (NHP) ([1]; NHP liver, DNA): 0.265 fold; Fold Enrichment relative to AAV9, Liver RNA (NHP) ([1]; NHP liver, RNA): 0.111 fold; Fold Enrichment relative to AAV9, Muscle (NHP) ([1]; NHP muscle): 0.000 fold
KVINGHDSPHKSGQTQQT (peptide inserted in AAV capsid) |  |  |  |  |  |  |  | 7.391 fold | 91.665 fold | 0.000 fold | 0.055 fold | 0.000 fold | 0.311 fold | 1.526 fold | 
KVINGSGSPHSKGQNQQT (peptide inserted in AAV capsid) | 68.532 fold | 0.000 fold | 60.001 fold | 0.000 fold | 0.157 fold | 0.264 fold | 0.031 fold |  |  |  |  |  |  |  | 
NTINGSGSPHSKAQNQQT (peptide inserted in AAV capsid) | 55.179 fold | 1.712 fold | 90.017 fold | 1.261 fold | 0.540 fold | 0.923 fold | 1.171 fold | 55.179 fold | 90.017 fold | 1.712 fold | 1.261 fold | 0.540 fold | 0.923 fold | 1.171 fold | 
